Results taken from US12214092B2, “Systems and methods for treating biological fluids” (Cerus Corporation, priority 2017, dated 2025).

Experiments:
platelets = assay: Platelet quality, platelets in 35% plasma/65% PAS III, amotosalen 30-110 μM, 340 nm device ~7.2 J/cm^2; type: cell-based
[1] = S-59 and photoproducts post-treatment in platelets in PAS/plasma, 150 μM amotosalen, liquid chromatography mass spectrometry; type: physicochemical
Excerpt: As mass spec extinction coefficients for photoproducts were assumed identical as S-59 extinction coefficients, only relative difference in concentrations (μM) between samples are compared in the following Table 9b, rather than absolute concentrations.

[2] = Amotosalen concentration pre- and post-UV in platelets (plasma or PAS/plasma), 340 nm ~7.2 J/cm^2, HPLC
Method: A study was performed to evaluate the photoconversion of amotosalen in platelets in 10000 plasma, as well as function of the platelets over 7 days (Day 3, Day 7) following photochemical treatment using the 340 nm device of the present disclosure. Multiple donor platelet units in 10000 plasma (5 units, ˜278-391 mL) were pooled and split into 5 units of ˜285 mL each, to be used as an untreated control, or treated with amotosalen at different concentrations, with ultraviolet A illumination using the 340 nm device. Amotosalen was added to a concentration of 30, 60, 90 or 110 μM, then pre-illumination (pre-UV) samples were removed for analysis, and the remainder of the units subjected to illumination at ˜7.2 J/cm^2. Post-illumination (Post-UV) samples were then removed for post-treatment analysis.

## Cc1oc2c(C)c3oc(=O)cc(C)c3cc2c1COCCN [S-59, 3-(2-aminoethoxymethyl)-2,5,9-trimethylfuro[3,2-g]chromen-7-one]
platelets; 30 μM, D4
  Glucose: 3.27 mmol/L
  LDH: 7.44 LDH IU/10^11 platelets
  Lactate: 7.1 mmol/L
  Platelet counts: 1385 x10^3 cells/μL
  Platelet lysis: 2.86%
  pCO2 at 37° C.: 26.7 mm Hg
  pH at 22° C.: 7.11
  pH at 37° C.: 6.88
  pO2 at 37° C.: 28.9 mm Hg
platelets; 30 μM, D7
  Glucose: 0.16 mmol/L
  LDH: 8.26 LDH IU/10^11 platelets
  Lactate: 15.38 mmol/L
  Platelet counts: 1392 x10^3 cells/μL
  Platelet lysis: 3.17%
  pCO2 at 37° C.: 23.6 mm Hg
  pH at 22° C.: 7.08
  pH at 37° C.: 6.86
  pO2 at 37° C.: 57.3 mm Hg
platelets; 30 μM, Post-UV
  Glucose: 5.45 mmol/L
  LDH: 7.80 LDH IU/10^11 platelets
  Lactate: 8.21 mmol/L
  Platelet counts: 1308 x10^3 cells/μL
  Platelet lysis: 2.85%
  pCO2 at 37° C.: 34.9 mm Hg
  pH at 22° C.: 7.07
  pH at 37° C.: 6.84
  pO2 at 37° C.: 11.6 mm Hg
platelets; 30 μM, Pre-UV
  Glucose: 5.2 mmol/L
  LDH: 7.13 LDH IU/10^11 platelets
  Lactate: 8.6 mmol/L
  Platelet counts: 1346 x10^3 cells/μL
  Platelet lysis: 2.46%
  pCO2 at 37° C.: 35.0 mm Hg
  pH at 22° C.: 7.07
  pH at 37° C.: 6.85
  pO2 at 37° C.: 4.8 mm Hg
platelets; 60 μM, D4
  Glucose: 2.92 mmol/L
  LDH: 8.12 LDH IU/10^11 platelets
  Lactate: 10.11 mmol/L
  Platelet counts: 1379 x10^3 cells/μL
  Platelet lysis: 3.10%
  pCO2 at 37° C.: 26.6 mm Hg
  pH at 22° C.: 7.11
  pH at 37° C.: 6.88
  pO2 at 37° C.: 28.8 mm Hg
platelets; 60 μM, D7
  Glucose: 0 mmol/L
  LDH: 8.48 LDH IU/10^11 platelets
  Lactate: 15.16 mmol/L
  Platelet counts: 1403 x10^3 cells/μL
  Platelet lysis: 3.37%
  pCO2 at 37° C.: 23.1 mm Hg
  pH at 22° C.: 7.08
  pH at 37° C.: 6.86
  pO2 at 37° C.: 61.0 mm Hg
platelets; 60 μM, Post-UV
  Glucose: 5.04 mmol/L
  LDH: 7.53 LDH IU/10^11 platelets
  Lactate: 6.93 mmol/L
  Platelet counts: 1249 x10^3 cells/μL
  Platelet lysis: 2.65%
  pCO2 at 37° C.: 35.1 mm Hg
  pH at 22° C.: 7.06
  pH at 37° C.: 6.83
  pO2 at 37° C.: 8.0 mm Hg
platelets; 60 μM, Pre-UV
  Glucose: 5.16 mmol/L
  LDH: 7.66 LDH IU/10^11 platelets
  Lactate: 6.72 mmol/L
  Platelet counts: 1344 x10^3 cells/μL
  Platelet lysis: 2.68%
  pCO2 at 37° C.: 33.7 mm Hg
  pH at 22° C.: 7.08
  pH at 37° C.: 6.85
  pO2 at 37° C.: 29.4 mm Hg
platelets; 90 μM, D4
  Glucose: 2.97 mmol/L
  Lactate: 9.83 mmol/L
  Platelet counts: 1373 x10^3 cells/μL
  Platelet lysis: 3.23%
  pCO2 at 37° C.: 26.9 mm Hg
  pH at 22° C.: 7.10
  pH at 37° C.: 6.87
  pO2 at 37° C.: 25.7 mm Hg
platelets; 90 μM, D7
  Glucose: 0 mmol/L
  LDH: 8.67 LDH IU/10^11 platelets
  Lactate: 14.62 mmol/L
  Platelet counts: 1384 x10^3 cells/μL
  Platelet lysis: 3.53%
  pCO2 at 37° C.: 22.6 mm Hg
  pH at 22° C.: 7.10
  pH at 37° C.: 6.87
  pO2 at 37° C.: 61.8 mm Hg
platelets; 90 μM, Post-UV
  Glucose: 4.95 mmol/L
  Lactate: 7.11 mmol/L
  Platelet counts: 1313 x10^3 cells/μL
  Platelet lysis: 2.64%
  pCO2 at 37° C.: 33.7 mm Hg
  pH at 22° C.: 7.06
  pH at 37° C.: 6.83
  pO2 at 37° C.: 29.3 mm Hg
platelets; 90 μM, Pre-UV
  Glucose: 4.9 mmol/L
  Lactate: 6.95 mmol/L
  Platelet counts: 1344 x10^3 cells/μL
  Platelet lysis: 2.76%
  pCO2 at 37° C.: 34.9 mm Hg
  pH at 22° C.: 7.06
  pH at 37° C.: 6.84
  pO2 at 37° C.: 9.0 mm Hg
platelets; 110 μM, D4
  Platelet counts: 0 x10^3 cells/μL
platelets; 110 μM, D7
  Platelet counts: 0 x10^3 cells/μL
platelets; 110 μM, Post-UV
  Glucose: 4.88 mmol/L
  LDH: 6.97 LDH IU/10^11 platelets
  Lactate: 7.18 mmol/L
  Platelet counts: 1335 x10^3 cells/μL
  Platelet lysis: 2.72%
  pCO2 at 37° C.: 34.2 mm Hg
  pH at 22° C.: 7.05
  pH at 37° C.: 6.83
  pO2 at 37° C.: 16.1 mm Hg
platelets; 110 μM, Pre-UV
  Glucose: 4.95 mmol/L
  LDH: 7.42 LDH IU/10^11 platelets
  Lactate: 6.85 mmol/L
  Platelet counts: 1308 x10^3 cells/μL
  Platelet lysis: 2.65%
  pCO2 at 37° C.: 33.7 mm Hg
  pH at 22° C.: 7.07
  pH at 37° C.: 6.84
  pO2 at 37° C.: 6.3 mm Hg
[1]; 340 nm, ~3.6 J/cm^2
  Post-illumination concentration (relative, LC-MS): 21.3 µM
[1]; 340 nm, ~7.2 J/cm^2
  Post-illumination concentration (relative, LC-MS): 4.8 µM
[1]; 340 nm, ~10.8 J/cm^2
  Post-illumination concentration (relative, LC-MS): 2.5 µM
[1]; INT100, ~3.6 J/cm^2
  Post-illumination concentration (relative, LC-MS): 37.0 µM
[1]; INT100, ~7.2 J/cm^2
  Post-illumination concentration (relative, LC-MS): 11.6 µM
[1]; INT100, ~10.8 J/cm^2
  Post-illumination concentration (relative, LC-MS): 12.0 µM
[2]; 30 μM, PAS/Plasma, Post-UV
  Amotosalen concentration: 0.3 µM
[2]; 30 μM, PAS/Plasma, Pre-UV
  Amotosalen concentration: 30.5 µM
[2]; 30 μM, Plasma, Post-UV
  Amotosalen concentration: 1.1 µM
[2]; 30 μM, Plasma, Pre-UV
  Amotosalen concentration: 32.7 µM
[2]; 60 μM, PAS/Plasma, Post-UV
  Amotosalen concentration: 0.7 µM
[2]; 60 μM, PAS/Plasma, Pre-UV
  Amotosalen concentration: 61.2 µM
[2]; 60 μM, Plasma, Post-UV
  Amotosalen concentration: 2.3 µM
[2]; 60 μM, Plasma, Pre-UV
  Amotosalen concentration: 62.0 µM
[2]; 90 μM, PAS/Plasma, Post-UV
  Amotosalen concentration: 1.0 µM
[2]; 90 μM, PAS/Plasma, Pre-UV
  Amotosalen concentration: 90.5 µM
[2]; 90 μM, Plasma, Post-UV
  Amotosalen concentration: 4.0 µM
[2]; 90 μM, Plasma, Pre-UV
  Amotosalen concentration: 89.7 µM
[2]; 110 μM, PAS/Plasma, Post-UV
  Amotosalen concentration: 1.2 µM
[2]; 110 μM, PAS/Plasma, Pre-UV
  Amotosalen concentration: 120.7 µM
[2]; 110 μM, Plasma, Post-UV
  Amotosalen concentration: 5.5 µM
[2]; 110 μM, Plasma, Pre-UV
  Amotosalen concentration: 105.8 µM
